Results: patent US20230131630A1, “METHOD OF SCREENING FOR A SUBSTANCE THAT ACTS ON A CELL MASS” (LSI MEDIENCE CORPORATION, priority 2017, published 2023)

What was measured:
[1] = test system: cell mass originating from the once-frozen PDX tumor of pancreatic cancer (1); assay: In vitro gemcitabine sensitivity test, ATP assay on cell mass from once-frozen tumor tissue; type: cell-based, human; settings: gemcitabine 0.001-10 µmol/L from Day 3, ATP assay on Day 7, FIG. 9
Protocol: The PDX tumor of pancreatic cancer (1) (procured from National Institutes of Biomedical Innovation, Health and Nutrition) was extracted in accordance with Example 1. The tumor was immersed in CELLBANKER 1 (Takara Bio Inc.) and frozen by a Program Deep Freezer (Nepa Gene Co., Ltd.), thereby preparing a frozen tumor. The frozen tumor was thawed in a warm bath at 37° C. and washed with HBSS (Thermo Fisher Scientific K.K.), and then, primary cancer cells were prepared in accordance with Example 1. After dispersion treatment, the necessary amount of cells counted were collected in a 15-mL tube, and the supernatant was removed by centrifugation at 300 × g for 5 min. […] The seeded cell count was 1 × 10^4 cells/200 µL/well, and the day of seeding was determined to be Day 0. […] The proportion of the result of each measurement day with respect to the result of Day 0 was calculated, and a proliferation curve was created. The proportion based on the result of each gemcitabine concentration group was calculated when the result at a gemcitabine concentration of 0 µmol / L was defined as a cell viability of 100%, thereby creating a cell viability curve.

[2] = test system: cell mass of primary cancer cells from PDX tumor of pancreatic cancer (1); assay: In vitro anticancer drug sensitivity test, ATP assay (CellTiter-Glo 3D) on three-dimensionally cultured cell mass; type: cell-based, human; settings: fresh tumor; gemcitabine 0.001-10 µmol/L from Day 7, ATP assay on Day 14; FIG. 8 right
Protocol: A half of medium exchange was performed with a culture medium supplemented with gemcitabine on Day 7. A half of medium exchange was performed with a culture medium supplemented with gemcitabine which was adjusted to maintain the final concentration on Days 10 and 12. On Day 14, ATP assay was performed, and the proportion based on the result of each gemcitabine concentration group was calculated when the result at a gemcitabine concentration of 0 µmol / L was defined as a cell viability of 100%, thereby creating a cell viability curve. An in vitro anticancer drug sensitivity test was performed by the following procedures. After dispersion treatment, the necessary amount of cells counted were collected in a 15-mL tube, and the supernatant was removed by centrifugation at 300 × g for 5 min. Thereafter, a cell suspension was prepared so that the cell count was 5 × 10^4 cells/mL using a medium prepared by adding Corning Matrigel GFR (Corning Incorporated) to StemPro hESC SFM (Thermo Fisher Scientific K.K.) to yield a final concentration of 2% v/v. […] The seeded cell count was 1 × 10^4 cells/200 µL/well, and the day of seeding was determined to be Day 0. […] The proportion of the result of each gemcitabine concentration group was calculated when the result at a gemcitabine concentration of 0 µmol / L was defined as a cell viability of 100%, thereby creating a cell viability curve.

[3] = test system: PDX tumor of pancreatic cancer (1); assay: In vivo anticancer drug sensitivity test, PDX tumor grafted subcutaneously in immunodeficient mice; settings: super SCID mouse, subcutaneous graft; gemcitabine 60 mg/kg/time twice weekly for 4 weeks; FIG. 8 left
Protocol: An in vivo anticancer drug sensitivity test was performed by the following procedures with reference to a known method. A PDX tumor of pancreatic cancer (1), which was subcutaneously grown in an immunodeficient mouse [super SCID mouse (strain name: C3H/HeJ/NOs-scid; LPS-nonresponder)], was aseptically extracted in a safety cabinet, and every necrotic area of the tumor was removed with surgical scissors. Subsequently, graft tumor fragments each having a size of about 2 to 3 mm square were prepared and subcutaneously grafted in at least 12 immunodeficient mice. When the average tumor volume reached about 200 mm^3, the mice were grouped by tumor volume and assigned to a control group and a gemcitabine administration group (N = 6: 6 mice each under the same conditions). Gemcitabine (60 mg/kg/time) was administered at a dosing frequency of twice weekly for 4 weeks. The tumor diameter was measured at a frequency of twice weekly and the tumor volume was calculated, thereby creating a tumor proliferation curve.

[4] = test system: reproduced cell mass originating from the PDX tumor of pancreatic cancer (1); assay: In vitro gemcitabine sensitivity test, ATP assay on subcultured (reproduced) cell mass; type: cell-based, human; settings: fresh or frozen tumor-derived, gemcitabine 0.001-10 µmol/L from Day 3, ATP assay on Day 7, FIGS. 10-1, 10-2
Protocol: A fresh tumor-derived cell mass and a frozen tumor-derived cell mass were obtained in accordance with Examples 1 and 10, respectively, using a PDX tumor of pancreatic cancer (1) (procured from National Institutes of Biomedical Innovation, Health and Nutrition). Each cell mass was collected in a 50-mL tube, and the supernatant was removed by centrifugation at 300 × g for 5 min. Thereafter, the cell mass was suspended in TrypLE (Thermo Fisher Scientific K.K.) and enzymatically treated in a warm bath at 37° C. The reaction was weakened by adding 10 times the amount of HBSS (Thermo Fisher Scientific K.K.) to the reaction solution. The undispersed residues were removed by passing the mixture through a 100-µm cell strainer. […]
The necessary amount of cells were collected in a 15-mL tube, and the supernatant was removed by centrifugation at 300 × g for 5 min. […] The seeded cell count was 1 × 10^4 cells/200 µL/well (fresh tumor-derived) or 4 × 10^3 cells/200 µL/well (frozen tumor-derived), and the day of seeding was determined to be Day 0. […] The ratio of the result of each measurement day with respect to the result of Day 0 was calculated, and a growth curve was created. The proportion based on the result of each gemcitabine concentration group was calculated when the result at a gemcitabine concentration of 0 µmol/L was defined as a cell viability of 100%, thereby creating a cell viability curve. […]

Nc1ccn([C@@H]2O[C@H](CO)[C@@H](O)C2(F)F)c(=O)n1 [Gemcitabine, gemcitabine]
inhibited proliferation: proliferation / cell viability (ATP assay) of the cell mass [1] | proliferation / cell viability (ATP assay) of the cell mass [2] | proliferation of the PDX tumor (tumor volume, tumor proliferation curve) [3] | proliferation / cell viability (ATP assay) of the reproduced cell mass [4]
